{"source": "patent US12577242B2", "about": "“Pyrrolopyridine and imidazopyridine antiviral compounds” (KATHOLIEKE UNIVERSITEIT LEUVEN, priority 2020, dated 2026)", "key": {"[1]": {"system": "Bovine viral diarrhea (BVD) virus", "test": "Anti-BVDV CPE inhibition assay in MDBK cells", "conditions": "for EC50: Bovine viral diarrhea virus isolates and strains, MDBK, in Bos taurus, 96 h; for SI (selectivity index, ratio of CC50 and EC50): CC50/EC50, MDBK cells, BVD virus"}, "[2]": {"test": "Cytotoxicity in MDBK cells (no BVD virus added)", "conditions": "bovine, MDBK cells (Madin-Darby bovine kidney), no virus added"}}}
{"compound": "Cc1ccc2nc(Cn3ccc4nc(-c5ccccc5F)nc-4c3)[nH]c2c1", "note": "[CPD-36, 2-(2-fluorophenyl)-5-((6-methyl-1H-benzo[d]imidazol-2-yl)methyl)-5H-imidazo[4,5-c]pyridine]", "values": [{"measurement": "EC50", "setting": "[1]", "result": "403 ± 129", "unit": "nM"}, {"measurement": "SI (selectivity index, ratio of CC50 and EC50)", "setting": "[1]", "result": ">124"}, {"measurement": "CC50 at 4 days", "setting": "[2]", "result": "> 50000", "unit": "nM"}]}
{"compound": "Fc1ccc2nc(Cn3ccc4nc(-c5ccccc5F)nc-4c3)[nH]c2c1", "note": "[CPD-37, 5-((6-fluoro-1H-benzo[d]imidazol-2-yl)methyl)-2-(2-fluorophenyl)-5H-imidazo[4,5-c]pyridine]", "values": [{"measurement": "EC50", "setting": "[1]", "result": "370 ± 74", "unit": "nM"}, {"measurement": "SI (selectivity index, ratio of CC50 and EC50)", "setting": "[1]", "result": ">135"}, {"measurement": "CC50 at 4 days", "setting": "[2]", "result": "> 50000", "unit": "nM"}]}
{"compound": "Fc1ccccc1-c1nc2ccn(Cn3nnc4ccccc43)cc-2n1", "note": "[CPD-38, 1-((2-(2-fluorophenyl)-5H-imidazo[4,5-c]pyridin-5-yl)methyl)-1H-benzo[d][1,2,3]triazole]", "values": [{"measurement": "EC50", "setting": "[1]", "result": "336 ± 103", "unit": "nM"}, {"measurement": "SI (selectivity index, ratio of CC50 and EC50)", "setting": "[1]", "result": ">149"}, {"measurement": "CC50 at 4 days", "setting": "[2]", "result": "> 50000", "unit": "nM"}]}
{"compound": "Fc1cccc(-c2nc3ccn(Cc4cc(-c5cc(F)ccc5F)no4)cc-3n2)c1", "note": "[CPD-39, 3-(2,5-difluorophenyl)-5-((2-(3-fluorophenyl)-5H-imidazo[4,5-c]pyridin-5-yl)methyl)isoxazole]", "values": [{"measurement": "EC50", "setting": "[1]", "result": "84 ± 8", "unit": "nM"}, {"measurement": "SI (selectivity index, ratio of CC50 and EC50)", "setting": "[1]", "result": ">595"}, {"measurement": "CC50 at 4 days", "setting": "[2]", "result": "> 50000", "unit": "nM"}]}
{"compound": "Cc1ccc2nc(Cn3ccc4nc(-c5cc(OCCO)ccc5F)nc-4c3)sc2c1", "note": "[CPD-41, 2-(4-fluoro-3-(5-((6-methylbenzo[d]thiazol-2-yl)methyl)-5H-imidazo[4,5-c]pyridin-2-yl)phenoxy)ethan-1-ol]", "values": [{"measurement": "EC50", "setting": "[1]", "result": "223 ± 143", "unit": "nM"}, {"measurement": "SI (selectivity index, ratio of CC50 and EC50)", "setting": "[1]", "result": ">224"}, {"measurement": "CC50 at 4 days", "setting": "[2]", "result": "> 50000", "unit": "nM"}]}
{"compound": "OCCOc1ccc(F)c(-c2nc3ccn(Cc4cc(-c5cc(F)ccc5F)no4)cc-3n2)c1", "note": "[CPD-42, 2-(3-(5-((3-(2,5-difluorophenyl)isoxazol-5-yl)methyl)-5H-imidazo[4,5-c]pyridin-2-yl)-4-fluorophenoxy)ethan-1-ol]", "values": [{"measurement": "EC50", "setting": "[1]", "result": "460 ± 48", "unit": "nM"}, {"measurement": "SI (selectivity index, ratio of CC50 and EC50)", "setting": "[1]", "result": ">109"}, {"measurement": "CC50 at 4 days", "setting": "[2]", "result": "> 50000", "unit": "nM"}]}
{"compound": "N#Cc1ccc(-c2nc3ccn(Cc4cc(-c5cc(F)ccc5F)no4)cc-3n2)cc1", "note": "[CPD-43, 4-(5-((3-(2,5-difluorophenyl)isoxazol-5-yl)methyl)-5H-imidazo[4,5-c]pyridin-2-yl)benzonitrile]", "values": [{"measurement": "EC50", "setting": "[1]", "result": "81 ± 8", "unit": "nM"}, {"measurement": "SI (selectivity index, ratio of CC50 and EC50)", "setting": "[1]", "result": ">617"}, {"measurement": "CC50 at 4 days", "setting": "[2]", "result": "> 50000", "unit": "nM"}]}
{"compound": "CN(C)c1cccc(-c2nc3ccn(Cc4cc(-c5cc(F)ccc5F)no4)cc-3n2)c1", "note": "[CPD-44, 3-(5-((3-(2,5-difluorophenyl)isoxazol-5-yl)methyl)-5H-imidazo[4,5-c]pyridin-2-yl)-N,N-dimethylaniline]", "values": [{"measurement": "EC50", "setting": "[1]", "result": "88 ± 17", "unit": "nM"}, {"measurement": "SI (selectivity index, ratio of CC50 and EC50)", "setting": "[1]", "result": ">568"}, {"measurement": "CC50 at 4 days", "setting": "[2]", "result": "> 50000", "unit": "nM"}]}
{"compound": "Cc1ccc2nc(Cn3ccc4nc(-c5ccccc5CO)nc-4c3)sc2c1", "note": "[CPD-45, (2-(5-((6-methylbenzo[d]thiazol-2-yl)methyl)-5H-imidazo[4,5-c]pyridin-2-yl)phenyl)methanol]", "values": [{"measurement": "EC50", "setting": "[1]", "result": "297 ± 107", "unit": "nM"}, {"measurement": "SI (selectivity index, ratio of CC50 and EC50)", "setting": "[1]", "result": ">168"}, {"measurement": "CC50 at 4 days", "setting": "[2]", "result": "> 50000", "unit": "nM"}]}
{"compound": "OCc1ccccc1-c1nc2ccn(Cc3cc(-c4cc(F)ccc4F)no3)cc-2n1", "note": "[CPD-46, (2-(5-((3-(2,5-difluorophenyl)isoxazol-5-yl)methyl)-5H-imidazo[4,5-c]pyridin-2-yl)phenyl)methanol]", "values": [{"measurement": "EC50", "setting": "[1]", "result": "465 ± 26", "unit": "nM"}, {"measurement": "SI (selectivity index, ratio of CC50 and EC50)", "setting": "[1]", "result": ">108"}, {"measurement": "CC50 at 4 days", "setting": "[2]", "result": "> 50000", "unit": "nM"}]}
{"compound": "Cc1ccc(-c2nc3ccn(Cc4cc(-c5cc(F)ccc5F)no4)cc-3n2)s1", "note": "[CPD-47, 3-(2,5-difluorophenyl)-5-((2-(5-methylthiophen-2-yl)-5H-imidazo[4,5-c]pyridin-5-yl)methyl)isoxazole]", "values": [{"measurement": "EC50", "setting": "[1]", "result": "341 ± 25", "unit": "nM"}, {"measurement": "SI (selectivity index, ratio of CC50 and EC50)", "setting": "[1]", "result": 70}, {"measurement": "CC50 at 4 days", "setting": "[2]", "result": 24000, "unit": "nM"}]}
{"compound": "Cc1cc(-c2nc3ccn(Cc4cc(-c5cc(F)ccc5F)no4)cc-3n2)cs1", "note": "[CPD-48, 3-(2,5-difluorophenyl)-5-((2-(5-methylthiophen-3-yl)-5H-imidazo[4,5-c]pyridin-5-yl)methyl)isoxazole]", "values": [{"measurement": "EC50", "setting": "[1]", "result": "395 ± 22", "unit": "nM"}, {"measurement": "SI (selectivity index, ratio of CC50 and EC50)", "setting": "[1]", "result": 68}, {"measurement": "CC50 at 4 days", "setting": "[2]", "result": 27000, "unit": "nM"}]}
{"compound": "Cc1scc(-c2nc3ccn(Cc4cc(-c5cc(F)ccc5F)no4)cc-3n2)c1C", "note": "[CPD-49, 3-(2,5-difluorophenyl)-5-((2-(4,5-dimethylthiophen-3-yl)-5H-imidazo[4,5-c]pyridin-5-yl)methyl)isoxazole]", "values": [{"measurement": "EC50", "setting": "[1]", "result": 409, "unit": "nM"}, {"measurement": "SI (selectivity index, ratio of CC50 and EC50)", "setting": "[1]", "result": 76}, {"measurement": "CC50 at 4 days", "setting": "[2]", "result": 31000, "unit": "nM"}]}
{"compound": "Fc1ccc(OC(F)(F)F)cc1-c1cc2ccn(Cn3nnc4ccccc43)cc-2n1", "note": "[Compound II, 1-({2-[2-fluoro-5-(trifluoromethoxy)phenyl]-6H-pyrrolo[2,3-c]pyridin-6-yl}methyl)-1H-benzotriazole]", "values": [{"measurement": "EC50", "setting": "[1]", "result": 23, "unit": "nM"}, {"measurement": "SI (selectivity index, ratio of CC50 and EC50)", "setting": "[1]", "result": 870}, {"measurement": "CC50 at 4 days", "setting": "[2]", "result": 20000, "unit": "nM"}]}
{"compound": "OCCOc1ccc(F)c(-c2cc3ccn(Cn4nnc5ccccc54)cc-3n2)c1", "note": "[Compound III, 2-(3-{6-[(1H-benzotriazol-1-yl)methyl]-6H-pyrrolo[2,3-c]pyridin-2-yl}-4-fluorophenoxy)ethan-1-ol]", "values": [{"measurement": "EC50", "setting": "[1]", "result": "19 ± 7", "unit": "nM"}, {"measurement": "SI (selectivity index, ratio of CC50 and EC50)", "setting": "[1]", "result": 1158}, {"measurement": "CC50 at 4 days", "setting": "[2]", "result": 22000, "unit": "nM"}]}
{"compound": "COc1ccccc1-c1cc2ccn(Cn3nnc4ccccc43)cc-2n1", "note": "[Compound IV, 1-{[2-(2-methoxyphenyl)-6H-pyrrolo[2,3-c]pyridin-6-yl]methyl}-1H-benzotriazole]", "values": [{"measurement": "EC50", "setting": "[1]", "result": "8 ± 5", "unit": "nM"}, {"measurement": "SI (selectivity index, ratio of CC50 and EC50)", "setting": "[1]", "result": 2750}, {"measurement": "CC50 at 4 days", "setting": "[2]", "result": 22000, "unit": "nM"}]}
{"compound": "Cc1ccc2oc(Cn3ccc4cc(-c5ccccc5F)nc-4c3)nc2c1", "note": "[Compound IX, 2-{[2-(2-fluorophenyl)-6H-pyrrolo[2,3-c]pyridin-6-yl]methyl}-5-methyl-1,3-benzoxazole]", "values": [{"measurement": "EC50", "setting": "[1]", "result": "1.2 ± 1.5", "unit": "nM"}, {"measurement": "SI (selectivity index, ratio of CC50 and EC50)", "setting": "[1]", "result": 4167}, {"measurement": "CC50 at 4 days", "setting": "[2]", "result": 5000, "unit": "nM"}]}
{"compound": "N#Cc1ccc(-c2cc3ccn(Cn4nnc5ccccc54)cc-3n2)cc1", "note": "[Compound VI, 4-{6-[(1H-benzotriazol-1-yl)methyl]-6H-pyrrolo[2,3-c]pyridin-2-yl}benzonitrile]", "values": [{"measurement": "EC50", "setting": "[1]", "result": 16, "unit": "nM"}, {"measurement": "SI (selectivity index, ratio of CC50 and EC50)", "setting": "[1]", "result": ">3125"}, {"measurement": "CC50 at 4 days", "setting": "[2]", "result": "> 50000", "unit": "nM"}]}
{"compound": "COc1ncccc1-c1cc2ccn(Cn3nnc4ccccc43)cc-2n1", "note": "[Compound VII, 1-{[2-(2-methoxypyridin-3-yl)-6H-pyrrolo[2,3-c]pyridin-6-yl]methyl}-1H-benzotriazole]", "values": [{"measurement": "EC50", "setting": "[1]", "result": "16 ± 1", "unit": "nM"}, {"measurement": "SI (selectivity index, ratio of CC50 and EC50)", "setting": "[1]", "result": 1375}, {"measurement": "CC50 at 4 days", "setting": "[2]", "result": 22000, "unit": "nM"}]}
{"compound": "Cc1c(-c2cc3ccn(Cn4nnc5ccccc54)cc-3n2)cnn1C", "note": "[Compound VIII, 1-[(2-(1,5-dimethyl-1H-pyrazol-4-yl)-6H-pyrrolo[2,3-c]pyridin-6-yl)methyl]-1H-benzotriazole]", "values": [{"measurement": "EC50", "setting": "[1]", "result": "335 ± 80", "unit": "nM"}, {"measurement": "SI (selectivity index, ratio of CC50 and EC50)", "setting": "[1]", "result": ">149"}, {"measurement": "CC50 at 4 days", "setting": "[2]", "result": "> 50000", "unit": "nM"}]}
{"compound": "COc1ncccc1-c1cc2ccn(Cc3nc4cc(C)ccc4o3)cc-2n1", "note": "[Compound X, 2-((2-(2-methoxypyridin-3-yl)-6H-pyrrolo[2,3-c]pyridin-6-yl)methyl)-5-methyl-1,3-benzoxazole]", "values": [{"measurement": "EC50", "setting": "[1]", "result": "7 ± 4", "unit": "nM"}, {"measurement": "SI (selectivity index, ratio of CC50 and EC50)", "setting": "[1]", "result": 571}, {"measurement": "CC50 at 4 days", "setting": "[2]", "result": 4000, "unit": "nM"}]}
{"compound": "Cc1ccc2nc(Cn3ccc4cc(-c5ccccc5F)nc-4c3)sc2c1", "note": "[Compound XI, 2-{[2-(2-fluorophenyl)-6H-pyrrolo[2,3-c]pyridin-6-yl]methyl}-6-methyl-1,3-benzothiazole]", "values": [{"measurement": "EC50", "setting": "[1]", "result": 8, "unit": "nM"}, {"measurement": "SI (selectivity index, ratio of CC50 and EC50)", "setting": "[1]", "result": 500}, {"measurement": "CC50 at 4 days", "setting": "[2]", "result": 4000, "unit": "nM"}]}
